Experimental data: patent publication US20140271723A1 (priority 2013, published 2014)

Experiments:
CRSBP-1 = CRSBP-1 (Mus musculus, UniProt Q8BHC0); conditions: cited from earlier work
[1] = tested on: lymphatic endothelial cell (LEC) monolayers; conditions: cited from earlier work
pseudorabies virus (PRV) = tested on: pseudorabies virus (PRV); parameters: species or system pigs; conditions: pig, in vivo
[2] = tested on: lymphatic intercellular junctions; conditions: mouse, in vivo; cited from earlier work

Chain of CRSBP-1 (Q8BHC0 24-318): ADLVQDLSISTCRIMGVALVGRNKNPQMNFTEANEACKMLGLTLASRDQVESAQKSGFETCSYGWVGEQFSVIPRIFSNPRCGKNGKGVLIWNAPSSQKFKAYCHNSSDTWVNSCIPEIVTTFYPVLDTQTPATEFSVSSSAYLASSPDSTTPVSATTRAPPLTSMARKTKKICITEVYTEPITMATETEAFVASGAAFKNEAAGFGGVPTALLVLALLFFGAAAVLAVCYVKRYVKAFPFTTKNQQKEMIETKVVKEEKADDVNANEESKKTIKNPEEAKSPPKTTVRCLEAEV

Substance | binding to CRSBP-1 (CRSBP-1) | disruption of VE-cadherin-mediated discontinuous intercellular adhesion and opening of intercellular junctions [1] | increase in serum antibody titer as compared to vaccine only (pseudorabies virus (PRV)) | activity in control experiments as compared to VEGF peptide and PDGF peptide [2]
KKSVRGKGKGQKRKRKKSRYKSWSV [VEGF peptide] | high affinity | induce disruption |  | 
YVRVRRPPKGKHRKFKHTH [PDGF peptide] | high affinity | induce disruption | ~4 fold | 
polyarginine |  |  |  | very weak activity
polylysine |  |  |  | very weak activity
